Measured values published in patent US9012604B2, “Triazanonane derivatives or pharmaceutically acceptable salt thereof for enhanced fluorine-18 labeling” (Snur & DB Foundation, priority 2011, dated 2015).

Tested on: human serum protein
Experiment: Human serum protein binding measurement
Format: in vitro ADME
Conditions: compared with NO2A compound
Experimental: The labeling compounds were cultured in human serum (1 mL) at 37° C. for 10 min and 60 min, and loaded to PD-10 column (pre-conditioned with 1 mL of 1% BSA/0.1 M DTPA), swept under stream of PBS into 30 test tubes by 0.5 mL fractions each. The radioactivity of each test tube was measured with gamma counter, and […] of sample was collected from the respective test tubes. After impression on the paper filter and staining with Coomassie blue, the protein peaks were observed. By plotting a curve of radioactivity of the respective fractions and calculating protein binding percent, the result was obtained as shown in Table 3.

How did the “binding to human serum protein relative to NO2A compound” value turn out when O=C(O)CCCN1CCN(CC(=O)O)CCN(CC(=O)O)CC1 [Example 1, 4,7-bis(carboxymethyl)-1,4,7-triazonane-1-butyric acid] was run?
Its value is “three times higher”.
